Results taken from the supplement of paper PMC5908809.

Legend:
Experiment in all cases: relative IC50 (inflection point of fitted viability curve, relative to fitted max inhibition); higher = less sensitive
Details in all cases: 72 h
[1] = tested on: normal primary NK cells, pool 1 (3 donors) (IL-2 2.5 ng/mL)
Description: (§1)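 Drug sensitivity and resistance testing: 5 concentrations over a 10,000-fold range, 72 h at 37 °C, viability by CellTiter-Glo normalised to DMSO and benzethonium chloride controls. IC50 is the inflection point of a logistic fit (min fixed at 0, max fitted), so it is relative to the fitted maximal inhibition. Kept only where fitted max inhibition is at least 50%.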

[2] = tested on: normal primary NK cells, pool 2 (3 donors) (IL-2 2.5 ng/mL)
Description: as §1

KHYG-1 (IL-2 2.5 ng/mL) = tested on: KHYG-1 (IL-2 2.5 ng/mL)
Description: as §1

DERL-7 (IL-2 2.5 ng/mL) = tested on: DERL-7 (IL-2 2.5 ng/mL)
Description: as §1

KAI3 (IL-2 2.5 ng/mL) = tested on: KAI3 (IL-2 2.5 ng/mL)
Description: as §1

[3] = tested on: normal primary NK cells, pool 3 (3 donors) (IL-2 2.5 ng/mL)
Description: as §1

NKL (IL-2 2.5 ng/mL) = tested on: NKL (IL-2 2.5 ng/mL)
Description: as §1

[4] = tested on: normal primary NK cells, pool 1 (3 donors), resting (IL-2 0 ng/mL)
Description: as §1

NK-92 (IL-2 2.5 ng/mL) = tested on: NK-92 (IL-2 2.5 ng/mL)
Description: as §1

YT (IL-2 2.5 ng/mL) = tested on: YT (IL-2 2.5 ng/mL)
Description: as §1

IMC-1 (IL-2 20 ng/mL) = tested on: IMC-1 (IL-2 20 ng/mL)
Description: as §1

NK-YS (IL-2 2.5 ng/mL) = tested on: NK-YS (IL-2 2.5 ng/mL)
Description: as §1

SNK-6 (IL-2 2.5 ng/mL) = tested on: SNK-6 (IL-2 2.5 ng/mL)
Description: as §1

| Structure (SMILES) | relative IC50 [1] [nM] | relative IC50 [2] [nM] | relative IC50 (KHYG-1 (IL-2 2.5 ng/mL)) [nM] | relative IC50 (DERL-7 (IL-2 2.5 ng/mL)) [nM] | relative IC50 (KAI3 (IL-2 2.5 ng/mL)) [nM] | relative IC50 [3] [nM] | relative IC50 (NKL (IL-2 2.5 ng/mL)) [nM] | relative IC50 [4] [nM] | relative IC50 (NK-92 (IL-2 2.5 ng/mL)) [nM] | relative IC50 (YT (IL-2 2.5 ng/mL)) [nM] | relative IC50 (IMC-1 (IL-2 20 ng/mL)) [nM] | relative IC50 (NK-YS (IL-2 2.5 ng/mL)) [nM] | relative IC50 (SNK-6 (IL-2 2.5 ng/mL)) [nM] |
| --- | --- | --- | --- | --- | --- | --- | --- | --- | --- | --- | --- | --- | --- |
| CC(C)[C@H](C(=O)Nc1ccc(C(=O)NO)cc1)c1ccccc1 [AR-42] | 367 | 430 | 240 | 331 | 77.2 | 527 | 219 | 297 | 129 | 527 | 289 | 540 | 241 |
| CN[C@@H](C)C(=O)N[C@H]1CN(C(=O)CC(C)C)CC[C@H]2CC[C@@H](C(=O)NC(c3ccccc3)c3ccccc3)N2C1=O [AT-406] | 1230 | 1410 | 1450 | – | 1920 | 1690 | – | 1250 | – | – | – | – | – |
| Cn1c(CCCC(=O)O)nc2cc(N(CCCl)CCCl)ccc21 [Bendamustine] | 3960 | 2960 | – | – | – | 2330 | 1420 | 3780 | – | – | – | 2600 | 1680 |
| COc1cccc2c1C(=O)c1c(O)c3c(c(O)c1C2=O)C[C@@](O)(/C(CO)=N/NC(=O)CCCCCN1C(=O)C=CC1=O)C[C@@H]3O[C@H]1C[C@H](N)[C@H](O)[C@H](C)O1 [Aldoxorubicin] | 140 | 96.6 | 57.7 | 31.2 | 41.9 | 134 | 4.2 | 71.6 | 94.9 | 70.8 | 44.6 | 34.3 | 21.7 |
| CN(C)CCN1C(=O)c2cccc3cc(N)cc(c23)C1=O [Amonafide] | 3500 | 2650 | 1970 | 1760 | 1280 | 2410 | 1240 | 2250 | 1400 | 2140 | 1940 | 1380 | 1700 |
| CC1(C)CCC(c2ccc(Cl)cc2)=C(CN2CCN(c3ccc(C(=O)NS(=O)(=O)c4ccc(N[C@H](CCN5CCOCC5)CSc5ccccc5)c(S(=O)(=O)C(F)(F)F)c4)cc3)CC2)C1 [Navitoclax] | 85.3 | 83 | 67.7 | 109 | 3.12 | 203 | 35.7 | 10.4 | 208 | 26.7 | 727 | 73.6 | 4.44 |
| C[C@@H]1CN(CC(=O)Nc2ccc3c(c2)Cc2cccc(-c4cc(=O)cc(N5CCOCC5)o4)c2S3)C[C@H](C)O1 | 5660 | 5660 | 4430 | 4940 | 4210 | 8100 | 3200 | 3480 | 4490 | 6110 | 7360 | 5880 | 6050 |
| O=C(CCCCCCNC(=O)c1cnc(N(c2ccccc2)c2ccccc2)nc1)NO [Rocilinostat] | 1100 | 1550 | 1050 | 1990 | 823 | 2470 | 814 | 485 | 1210 | 1810 | 2490 | 1620 | 1350 |
| CN[C@@H](C)C(=O)N[C@H](C(=O)N1CCC[C@H]1c1nc(C(=O)c2ccc(F)cc2)cs1)C1CCCCC1 [LCL161] | 1040 | 772 | 251 | 1390 | 2940 | 932 | – | 2520 | 2900 | – | – | – | – |
| Cc1ccc(-n2nc(C(C)(C)C)cc2NC(=O)Nc2ccc(OCCN3CCOCC3)c3ccccc23)cc1 [Doramapimod] | 3690 | 3230 | 2140 | – | 362 | 2980 | 370 | 2920 | 1910 | – | – | 1300 | – |
| COc1nc(N)nc2c1ncn2[C@@H]1O[C@H](CO)[C@@H](O)[C@@H]1O [Nelarabine] | 406 | 322 | – | – | 292 | 200 | 1810 | 38.6 | – | – | > 10000 | – | – |
| CC(=O)OC[C@H]1O[C@@H]([S-])[C@H](OC(C)=O)[C@@H](OC(C)=O)[C@@H]1OC(C)=O.CCP(CC)CC.[Au+] [Auranofin] | 53.6 | 102 | 507 | 274 | 859 | 78.4 | 241 | 26.1 | 791 | 824 | 761 | 551 | 319 |
| CC1(COc2ccc3c(c2)ncn3-c2ccc3cccc(N4CCC(N)CC4)c3n2)COC1 [Crenolanib] | 1640 | 1350 | 1820 | 984 | 2250 | 1640 | 633 | 3660 | 998 | 1600 | 2710 | 1890 | 429 |
| CCCc1cc(C)[nH]c(=O)c1CNC(=O)c1cc(-c2ccnc(N3CCN(C)CC3)c2)cc2c1cnn2C(C)C [GSK343] | 2470 | > 10000 | 2880 | 2420 | 2480 | 3690 | 3350 | 2240 | 3190 | 2890 | 3630 | 2780 | 3520 |
| CCCCCCCCc1ccc(CCC(N)(CO)CO)cc1 [Fingolimod] | 2450 | 1930 | 2290 | 2030 | 1670 | 3410 | 1400 | 3330 | 3260 | 2450 | 2310 | 2280 | 2060 |
